In article PMC11055985, “Metochalcone induces senescence-associated secretory phenotype via JAK2/STAT3 pathway in breast cancer” (Oncology Research, 2024):

Target: STAT3 (Homo sapiens, UniProt P40763)
Experiment: microscale thermophoresis (MST) with His-tag-labelled purchased STAT3 protein (ACROBiosystems ST3-H5149)
Assay type: binding

Sequence of STAT3 (P40763 2-770): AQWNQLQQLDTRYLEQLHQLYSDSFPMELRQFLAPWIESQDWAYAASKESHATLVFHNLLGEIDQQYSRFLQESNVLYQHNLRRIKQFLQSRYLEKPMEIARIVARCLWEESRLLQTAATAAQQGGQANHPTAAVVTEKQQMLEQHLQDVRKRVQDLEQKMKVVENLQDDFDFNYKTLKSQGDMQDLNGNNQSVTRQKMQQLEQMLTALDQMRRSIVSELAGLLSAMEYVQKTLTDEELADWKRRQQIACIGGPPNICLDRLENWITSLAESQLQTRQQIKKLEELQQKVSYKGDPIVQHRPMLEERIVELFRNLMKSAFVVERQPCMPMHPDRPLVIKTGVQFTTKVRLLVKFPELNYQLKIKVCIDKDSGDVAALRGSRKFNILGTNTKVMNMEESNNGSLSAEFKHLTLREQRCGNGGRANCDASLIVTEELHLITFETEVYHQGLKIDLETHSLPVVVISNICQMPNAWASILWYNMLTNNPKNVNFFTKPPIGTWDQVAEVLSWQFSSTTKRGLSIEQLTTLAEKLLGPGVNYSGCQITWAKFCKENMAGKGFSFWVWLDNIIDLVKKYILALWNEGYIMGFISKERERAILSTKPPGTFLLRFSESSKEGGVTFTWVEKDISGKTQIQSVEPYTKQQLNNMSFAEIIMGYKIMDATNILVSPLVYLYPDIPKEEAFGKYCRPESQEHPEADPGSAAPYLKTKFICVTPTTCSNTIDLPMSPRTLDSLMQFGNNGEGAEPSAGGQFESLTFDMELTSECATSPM

A Kd of 9.85 µM was found for COc1ccc(/C=C/C(=O)c2ccc(OC)cc2OC)cc1 [TEC, 2', 4, 4'-trimethoxychalcone] in this work.
